Results on 4 compounds are retold here after patent US10106572B1, “Supramolecular hacky sacks (SHS), method of synthesis and applications thereof” (University of Puerto Rico, priority 2014, dated 2018).

The structures appear in SMILES notation. Values joined by “and” are separate entries in the source; they are usually repeats but may differ in a detail not shown here. Equal values may be shown once.

The subject of series [1] is neuroblastoma (SH-SY5Y) cells. In words: MTT viability assay. Type of series: cell-based, human. As to conditions: 0.2 μM DOX.
Series [2] can be described thus: pKa estimation by UV-VIS absorbance at different pHs. Type of series: physicochemical. As to conditions: UV absorbance at pH 5-7.5. An excerpt: During the synthesis of derivatives ImAGhD2OH and ImAGpD2OH, an ImAG std (with a molecular structure as shown in FIG. 8) was constructed to obtain information of the pKa of the derivative by UV-VIS measurements. This allowed to study the effect of the functionality added in the 8ArG derivative. Derivative (E)-3-(1-methyl-1H-imidazol-2-yl)-1-phenylprop-2-en-1-one (ImAG std), with a chemical formula C13H12N2O, offers an alternative method to determine the pKa without having to perform the entire synthetic sequence for the corresponding compounds ImAGhD2OH and ImAGpD2OH. In the case of ImAG standard, the same procedure as above was followed, but the obtained solid was washed with ether and hexane. ImAG std was characterized as shown in FIG. 9 and FIG. 10 by using ^1H NMR and ^13C NMR, respectively. Yellow solid, mp (125.2-126.3) ° C. […]
Before the imidazole modification of ImAGpD2OH and ImAGhD2OH, chalcone imidazole standard derivative (E)-3-(1-methyl-1H-imidazol-2-yl)-1-phenylprop-2-en-1-one (ImAG std) was synthesized by the same aldol condensation method to obtain an estimation of the pKa by measuring the absorbance at different pHs in a Varian UV-visible spectrometer, Model Cary Bio-100 as shown in FIG. 14. For the transition pH measurement, Isothermal measurements at 26.0° C. were performed in a SPECTRAmax 340 microplate reader at 650 nm. […]

Series [3] in a line: Turbidimetry studies, cloud-point temperature (Tcp). Type of series: physicochemical. As for the experimental part:
(§1) Solutions of 0.650 mL of ImAGhD2OH were prepared at 5 mM with 4 M KI. In the case of ImAGpD2OH, the solutions prepared were 5 mM with 2 M KI. By following this procedure the following ratio is recommended between ImAGhD2OH (or ImAGpD2OH) with KI salt: 0-10 mM of ImAGhD2OH (or ImAGpD2OH) with 2-4 M KI. To dissolve the solids it was prepared a 0.1 M sodium acetate buffer for pH values of 5, 5.1, 5.2, 5.3, 5.4, 5.5, 5.6, 5.7, 5.8, 5.9. For pH 6-7, PBS from Fisher Scientific was used. The samples were put in the refrigerator (−10° C.) overnight (˜12 h) for equilibration. This sample concentration was used for turbidity experiments, DSC, and DLS experiments. The concentrations of the resulting assemblies of SGQ and f-SHS were calculated in terms of the molecular weights of monomeric 8ArG derivative ImAGpD2OH or ImAGhD2OH.
This Tcp, which is measured by turbidimetry studies in UV-Vis, is the transition temperature to form the cluster of self-arranged supramolecular structures known as supramolecular hacky sacks (SHS). The turbidity measurements were performed at 650 nm using a Varian UV-visible spectrometer, Model Cary Bio-100. The heating rate was adjusted at 2.0° C./min using Cary temperature controller apparatus from Varian.

Series [4] is described as follows: Isothermal turbidity, transition pH. Conditions: for pKa: previously estimated, imidazole-containing ImAG. Format: physicochemical. As for the experimental part: as §1
Before the imidazole modification of ImAGpD2OH and ImAGhD2OH, chalcone imidazole standard derivative (E)-3-(1-methyl-1H-imidazol-2-yl)-1-phenylprop-2-en-1-one (ImAG std) was synthesized by the same aldol condensation method to obtain an estimation of the pKa by measuring the absorbance at different pHs in a Varian UV-visible spectrometer, Model Cary Bio-100 as shown in FIG. 14. For the transition pH measurement, Isothermal measurements at 26.0° C. were performed in a SPECTRAmax 340 microplate reader at 650 nm. In these experiments 100 μL of sample was added in each well in triplicate for pH: 5, 5.1, 5.2, 5.3, 5.4, 5.5, 5.6, 5.7, 5.8, 5.9, 6.0, 6.5, 7.0 and 7.5. After the microplate wells were filled, the microplate was placed in the refrigerator (−10° C.) for equilibration. Afterwards, an 85% weighted curve fit was performed to the obtained graph. According to the standard experiments performed, the pKa of ImAG std is between 5.5 and 6.
Aside from the effect of the pH on the precise assembly of the nanoglobular SGQs, we observed, at 26° C., a pH-responsive phase transition where, at pH 5 the system is in solution, but changing it to pH 7 results in the solution becoming cloudy.

Series [5] can be described thus: Differential scanning calorimetry (DSC) of SGQ assemblies. Format: physicochemical. Conditions: for Tt: LCST transition. The protocol:
The ΔGcal and ΔScal values shown in this table correspond to those calculated using the values of Tt, Tm, and ΔHcal from the instrument. All ΔG values were calculated at a temperature of 20° C.
Differential Scanning calorimetry (DSC) analyses were performed on a VP-DSC Micro-Calorimeter from MicroCal and Origin (v.7) was used for data processing. For the experiment, the buffer was first degasified and the experiment was carried out as a blank in both sample and reference cell. Then, the sample was degasified, and the blank buffer in the sample cell to be substituted with sample was removed. Afterwards, the experiment was performed with a temperature ramp of 0° C.-80° C. for 4 cycles.
For orientation: Differential scanning calorimetry records heat flow against a reference as temperature is scanned.

[6] abbreviates: ImAGhD2OH, pH 5.0, calculated at 20° C.
Setting [7] is: ImAGhD2OH, pH 5.5, calculated at 20° C.
[8] abbreviates: ImAGhD2OH, pH 6:0, calculated at 20° C.
[9] abbreviates: ImAGhD2OH, pH 6.5, calculated at 20° C.
The mark [10] stands for this setting: ImAGhD2OH, pH 7.0, calculated at 20° C.
Setting [11] is: ImAGpD2OH, pH 5.0, calculated at 20° C.
[12] abbreviates: ImAGpD2OH, pH 7.0, calculated at 20° C.

On to `COc1cccc2c1C(=O)c1c(O)c3c(c(O)c1C2=O)C[C@@](O)(C(=O)CO)C[C@@H]3O[C@H]1C[C@H](N)[C@H](O)[C@H](C)O1` [DOX, doxorubicin], for which the “cytotoxicity (MTT)” value in series [1] is “cytotoxic”.
Consider `Cn1ccnc1/C=C/C(=O)c1ccccc1` [ImAG std, (E)-3-(1-methyl-1H-imidazol-2-yl)-1-phenylprop-2-en-1-one], for which the pKa – broadly, the negative logarithm of the acid dissociation constant – in series [2] was 5.5 to 6.
As to `Cn1ccnc1/C=C/C(=O)c1cccc(-c2nc3c(=O)[nH]c(N)nc3n2[C@H]2C[C@H](OC(=O)CCCCCn3cc(COC(=O)C(C)(CO)CO)nn3)[C@@H](COC(=O)CCCCCn3cc(COC(=O)C(C)(CO)CO)nn3)O2)c1` [ImAGhD2OH], the ΔTcp result in series [3] (between hSGQ and oSGQ) is “≈ 25 °C”. The “cloud-point temperature (Tcp)” value was “around 4 °C” in series [3] (oSGQ, pH 6-7, 650 nm); 29 °C in series [3] (protonated hSGQ, at pHs and 5.5, 650 nm). In addition, the pKa in series [4] is recorded as 5.7. Moreover, the “transition pH” value in series [4] (transmittance at 650 nm, 26° C., at 65% of the transmittance) is listed as “around 5.7”. Besides, the ΔHTm in series [5] (ImAGhD2OH, pH 5.0) amounted to 64.32 kcal/mol; in series [5] (ImAGhD2OH, pH 5.5), 62.58 kcal/mol; in series [5] (ImAGhD2OH, pH 6:0), 11.20 kcal/mol; in series [5] (ImAGhD2OH, pH 6.5), 11.80 kcal/mol; in series [5] (ImAGhD2OH, pH 7.0) it was 15.42 kcal/mol. For the same compound, the ΔSTm in series [5] (ImAGhD2OH, pH 5.0) came out at 0.884 kcal/mol · ° C; in series [5] (ImAGhD2OH, pH 5.5), 0.912 kcal/mol · ° C; in series [5] (ImAGhD2OH, pH 6:0), 0.272 kcal/mol · ° C; in series [5] (ImAGhD2OH, pH 6.5), 0.316 kcal/mol · ° C; in series [5] (ImAGhD2OH, pH 7.0), 0.362 kcal/mol · ° C. For the same compound, the ΔSTt turned out to be 0.778 kcal/mol · ° C in series [5] (ImAGhD2OH, pH 5.0); 2.704 kcal/mol · ° C in series [5] (ImAGhD2OH, pH 5.5); 0.0216 kcal/mol · ° C in series [5] (ImAGhD2OH, pH 6:0); 0.0106 kcal/mol · ° C in series [5] (ImAGhD2OH, pH 6.5); 0.0144 kcal/mol · ° C in series [5] (ImAGhD2OH, pH 7.0). The Tt in series [5] (ImAGhD2OH, pH 5.0, aqueous solution) was 59.3 °C and 59.26 °C; in series [5] (ImAGhD2OH, pH 5.5, aqueous solution), 54.00 °C; in series [5] (ImAGhD2OH, pH 6:0, aqueous solution) it was 5.702 °C; in series [5] (ImAGhD2OH, pH 6.5, aqueous solution), 4.938 °C; in series [5] (ImAGhD2OH, pH 7.0, aqueous solution), 5.4 °C and 5.449 °C. Besides, the “ΔGT:” value was 30.67 kcal/mol in series [5] (setting [6]); 91.92 kcal/mol in series [5] (setting [7]); -0.309 kcal/mol in series [5] (setting [8]); -0.160 kcal/mol in series [5] (setting [9]); -0.210 kcal/mol in series [5] (setting [10]). Further, the ΔGTm is reported as 46.64 kcal/mol in series [5] (setting [6]); 44.34 kcal/mol in series [5] (setting [7]); 5.76 kcal/mol in series [5] (setting [8]); 5.48 kcal/mol in series [5] (setting [9]); 8.18 kcal/mol in series [5] (setting [10]). For the same compound, the Tm in series [5] (ImAGhD2OH, pH 5.0, melting of SGQ assembly) is 72.7 °C and 72.72 °C; in series [5] (ImAGhD2OH, pH 5.5, melting of SGQ assembly), 68.64 °C; in series [5] (ImAGhD2OH, pH 6:0, melting of SGQ assembly), 41.12 °C; in series [5] (ImAGhD2OH, pH 6.5, melting of SGQ assembly), 37.32 °C; in series [5] (ImAGhD2OH, pH 7.0, melting of SGQ assembly), 42.6 °C and 42.64 °C. Besides, the ΔHTt is 146 kcal/mol and 146.0 kcal/mol in series [5] (ImAGhD2OH, pH 5.5); 0.123 kcal/mol in series [5] (ImAGhD2OH, pH 6:0); 0.0522 kcal/mol in series [5] (ImAGhD2OH, pH 6.5); 0.078 kcal/mol and 0.0784 kcal/mol in series [5] (ImAGhD2OH, pH 7.0). In addition, the ΔTt entry in series [5] (between oSGQ (pH 7) and hSGQ (pH 5)) was “≈ 53.9 °C”.
For `Cn1ccnc1/C=C/C(=O)c1cccc(-c2nc3c(=O)[nH]c(N)nc3n2[C@H]2C[C@H](OC(=O)CCCCn3cc(COC(=O)C(C)(CO)CO)nn3)[C@@H](COC(=O)CCCCn3cc(COC(=O)C(C)(CO)CO)nn3)O2)c1` [ImAGpD2OH], the Tcp in series [3] (hSGQ at pH 5) came out at 42 °C; in series [3] (oSGQ at pH 7), 15 °C. Moreover, the “shift of ΔTcp” value was determined as 13 °C in series [3] (hSGQ at pH 5, relative to ImAGhD2OH) and 10 °C in series [3] (oSGQ at pH 7, relative to ImAGhD2OH). Also, the pKa in series [4] is listed as 5.7. Besides, the ΔHTm in series [5] (ImAGpD2OH, pH 5.0) stood at 57.01 kcal/mol; in series [5] (ImAGpD2OH, pH 7.0) it was 101.3 kcal/mol. Further, the ΔHTt in series [5] (ImAGpD2OH, pH 5.0) is on record as 8.41 kcal/mol; in series [5] (ImAGpD2OH, pH 7.0) it was 4.36 kcal/mol. Also, the ΔSTm in series [5] (ImAGpD2OH, pH 5.0) is given as 0.808 kcal/mol · ° C; in series [5] (ImAGpD2OH, pH 7.0), 1.805 kcal/mol · ° C. Moreover, the ΔSTt in series [5] (ImAGpD2OH, pH 5.0) is 0.167 kcal/mol · ° C; in series [5] (ImAGpD2OH, pH 7.0), 0.505 kcal/mol · ° C. Moreover, the Tt in series [5] (ImAGpD2OH, pH 5.0, aqueous solution) is 50.5 °C and 50.45 °C; in series [5] (ImAGpD2OH, pH 7.0, aqueous solution), 8.6 °C and 8.631 °C. For the same compound, the “ΔGT:” value in series [5] (setting [11]) is 5.07 kcal/mol; in series [5] (setting [12]), -5.74 kcal/mol. The ΔGTm in series [5] (setting [11]) is given as 40.85 kcal/mol; in series [5] (setting [12]) it was 65.20 kcal/mol. Also, the Tm in series [5] (ImAGpD2OH, pH 5.0, melting of SGQ assembly) was found to be 70.52 °C; in series [5] (ImAGpD2OH, pH 7.0, melting of SGQ assembly), 56.11 °C.
